Values after ≈ are worked out from the molar mass of the structure shown.

For data set [1], the system named is Enterococcus faecalis. The experiment in a line: Antimicrobial activity against Enterococcus faecalis after 20 hrs by broth microdilution method. The class given is functional.
The subject of data set [2] is Enterococcus faecalis. The experiment in a line: Antimicrobial activity against vancomycin-resistant Enterococcus faecalis after 20 hrs by broth microdilution method. The data set is classed as functional.
Data set [3] in a line: Solubility at 1 mM. The class given is physicochemical. The following applies: 1000 µM.

In the case of `O=C1CC(c2ccccc2O)Oc2ccc(O)cc21` (centres undefined), the MIC against Enterococcus faecalis [1] and in the data set on Enterococcus faecalis [2] was 256 µg/mL (≈ 999 µM) in each case.

In the case of `O=C1CC(c2cccc(O)c2)Oc2ccccc21` (centres undefined) [3'-HYDROXYFLAVANONE], the MIC with Enterococcus faecalis [1] and in the data set with Enterococcus faecalis [2] was 256 µg/mL (≈ 1070 µM) throughout.

As for `O=C1c2c(O)cc(O)cc2O[C@H](c2ccc(O)c(O)c2)[C@H]1O` [(+)-TAXIFOLIN], the MIC in the data set on Enterococcus faecalis [1] was 128 µg/mL (≈ 421 µM); in the data set with Enterococcus faecalis [2], 512 µg/mL (≈ 1680 µM).

Take `O=C1c2ccc(O)cc2OC(c2cc(O)c(O)c(O)c2)C1O` (centres undefined) [DIHYDROBINETIN]: the solubility result in data set [3] is “Insoluble”. In addition, the MIC is 256 µg/mL (≈ 841 µM) in the data set on Enterococcus faecalis [1] and above 512 µg/mL in the data set on Enterococcus faecalis [2].

Turning to `O=C1C[C@@H](c2ccc(O)c(O)c2)Oc2cc(O)cc(O)c21` [ERIODICTYOL], the MIC in the data set on Enterococcus faecalis [1] was 256 µg/mL (≈ 888 µM); with Enterococcus faecalis [2], 512 µg/mL (≈ 1780 µM).

Regarding `O=C1C[C@@H](c2ccc(O)cc2)Oc2cc(O)cc(O)c21` [NARINGENIN], the MIC turned out to be 256 µg/mL (≈ 940 µM) against Enterococcus faecalis [1] and 512 µg/mL (≈ 1880 µM) against Enterococcus faecalis [2].

Consider `O=C1C[C@@H](c2ccccc2)Oc2cc(O)cc(O)c21` [PINOCEMBRIN], for which the minimum inhibitory concentration (MIC) against Enterococcus faecalis [1] was above 512 µg/mL.
